Reference: patent publication US12152017B2, “Ketoamide compound and preparation method, pharmaceutical composition, and use thereof” (Shanghai Institute of Materia Medica, Chinese Academy of …, priority 2018, dated 2024)
Several values for one entry are separate records, joined by “and”; a condition that tells them apart may be missing. Equal entries are not always repeated. Where two headings read alike, the source gives them in different places.

How the values were obtained:
SARS-CoV pseudovirus = assay: microbe, parasite or virus in culture; assay type: cell-based; settings: Severe acute respiratory syndrome coronavirus; 100 nM; read-out: viral inhibitory effect, SARS-CoV pseudovirus
[1] = Pharmacokinetic study in CD-1 mice (gavage, intravenous, intraperitoneal); assay type: in vivo; settings: for bioavailability: read-out: F (bioavailability)
Experimental: Nine CD-1 mice, male, weighing 18-22 g, were randomly divided into 3 groups with 3 mice in each group. The test compounds were administered by gavage, intravenously and intraperitoneally according to the following schemes.
Before the test, they were fasted for 12 hours and were allowed to drink water freely, and were fed uniformly 2 h after administration.
There were 3 animals at each time point.
The solution for gavage administration was formulated with DMSO/0.5% HPMC (5/95, v/v) into the final concentration. Intravenous and intraperitoneal administration were formulated with DMSO/PEG300/EtOH/NaCl (5/40/5/50, v/v/v). Retention samples of the dosing solution (50 μL of the drug solution was taken and mixed well with 50 μL of DMSO before and after the administration) for testing.
The drug was administered according to the above dosage, the time of administration were recorded, and 20 μL of blood was collected from the mouse femoral plexus at the above set time point and placed in a heparinized test tube and centrifuged immediately at 11000 rpm for 5 min. 10 μL of plasma was immediately and accurately drawn into a centrifuge tube pre-filled with 100 μL of PK-IS solution (prepared with methanol:acetonitrile (1:1, v/v)), mixed well, and frozen to store at −20° C. for testing.

[2] = In vivo safety: body weight of mice during 7 days of intraperitoneal administration; design: species or system Balb/c mice; settings: 100 mg/kg i.p. once a day for 7 consecutive days
Experimental: Next, we further evaluated the safety of compound A13 in mice. The mice in the drug group (100 mg/kg) and the DMSO control group were administered intraperitoneally, once a day, for 7 consecutive days, and then the growth status and weight changes of the mice in each group were observed.

MERS-CoV pseudovirus = assay: microbe, parasite or virus in culture; assay type: cell-based; settings: Middle East respiratory syndrome-related coronavirus, Huh-7; 100 nM; read-out: viral inhibitory effect, MERS-CoV pseudovirus
HCoV-229E pseudovirus = assay: microbe, parasite or virus in culture; assay type: cell-based; settings: Human coronavirus 229E, read-out: viral inhibitory effect, HCoV-229E pseudovirus
in vitro = settings: human
VSV-G pseudovirus = assay type: cell-based
[3] = i.p. (20 mg/Kg per Table 3), Mean of 3 mice
[4] = i.p. (20 mg/Kg per Table 3), individual animal, 20 mg/kg
[5] = i.v. 10 mg/Kg, individual animal, 10 mg/kg
[6] = male, CD-1, mouse, plasma, ip, 20 mg/kg, i.p. (20 mg/Kg per Table 3), individual animal
[7] = p.o. (gavage 20 mg/Kg per Table 3), Mean of 3 mice
[8] = p.o. (gavage 20 mg/Kg per Table 3), individual animal, 20 mg/kg

## O=C(NCc1ccccc1)C(=O)[C@H](C[C@@H]1CCCNC1=O)NC(=O)[C@H](CC1CCCCC1)NC(=O)c1cc2ccccc2o1 [Example A13]
Huh-7 cells
  CC50 relative to the detection dose: more than 1000 times
HCoV-OC43 live virus; 1 μM, HCT-8 cells
  Inhibition of HCoV-OC43 infection and CPE: effectively block the virus infection
HCoV-OC43 live virus; Betacoronavirus 1, OC43, HCT-8, read-out: IC50 against HCoV-OC43 live virus infection
  IC50: 0.086 µM
HCoV-OC43 live virus; HCT-8 cells, HCoV-OC43
  protective effect on target cells (CPE) at different concentrations: obviously dose-dependent
SARS-CoV pseudovirus
  inhibition at 0.1 µM: ~90%
[1]; [3]
  AUC INF_obs: 7635 ng·h/mL
  AUC last (exposure for intraperitoneal injection): 7298 ng·h/mL
  C max: 3270 ng/mL
  MRT INF_obs: 5.34 h
  T1/2: 5.77 h
[1]; [4]
  AUC INF_obs: 7708 ng·h/mL and 8196 ng·h/mL
  AUC last: 7304 ng·h/mL and 8077 ng·h/mL
  C max: 3583 ng/mL and 3372 ng/mL
  MRT INF_obs: 6.69 h and 6.05 h and 3.28 h
  T1/2: 5.90 h and 4.94 h
  T max: 0.250 h and 0.050 h
[1]; i.v. 10 mg/Kg, Mean of 3 mice
  AUC INF_obs: 2976 ng·h/mL
  AUC last: 2896 ng·h/mL
  Cl_obs: 62.5 mL/min/kg
  MRT INF_obs: 1.88 h
  T1/2: 3.34 h
  VSS_obs: 6.419 L/kg
[1]; [5]
  AUC INF_obs: 3411 ng·h/mL and 1773 ng·h/mL and 3745 ng·h/mL
  AUC last: 3300 ng·h/mL and 1734 ng·h/mL and 3652 ng·h/mL
  Cl_obs: 48.9 mL/min/kg and 94.0 mL/min/kg and 44.5 mL/min/kg
  MRT INF_obs: 3.11 h and 1.13 h and 1.40 h
  T1/2: 6.09 h and 2.07 h and 1.87 h
  VSS_obs: 9.132 L/kg and 6.389 L/kg and 3.736 L/kg
[1]; male, CD-1, mouse, plasma, intraperitoneal, i.p. 20 mg/Kg vs i.v. 10 mg/Kg
  bioavailability: 126%
[1]; male, CD-1, mouse, plasma, ip, 20 mg/kg, i.p. (20 mg/Kg per Table 3), Mean of 3 mice
  Tmax: 0.183 h
[1]; [6]
  Cmax: 2860 ng/mL
  half-life: 6.46 h
[1]; male, CD-1, mouse, plasma, ip, 20 mg/kg, i.p. (20 mg/Kg per Table 3), individual animal, read-out: AUC INF_obs
  AUC(0-inf): 7000 ng·h/mL
[1]; male, CD-1, mouse, plasma, ip, 20 mg/kg, i.p. (20 mg/Kg per Table 3), individual animal, read-out: AUC last
  AUC(0-t): 6510 ng·h/mL
[1]; male, CD-1, mouse, plasma, oral, p.o. 20 mg/Kg vs i.v. 10 mg/Kg
  bioavailability: 7.99%
[1]; [7]
  AUC INF_obs: 488 ng·h/mL
  AUC last (oral exposure): 463 ng·h/mL
  C max: 290 ng/mL
  MRT INF_obs: 2.11 h
  T1/2: 1.32 h
  T max: 0.250 h
[1]; p.o. (gavage 20 mg/Kg per Table 3), individual animal
  T max: 0.250 h
[1]; [8]
  AUC INF_obs: 700 ng·h/mL and 499 ng·h/mL and 263 ng·h/mL
  AUC last: 690 ng·h/mL and 458 ng·h/mL and 241 ng·h/mL
  C max: 493 ng/mL and 259 ng/mL and 118 ng/mL
  MRT INF_obs: 1.37 h and 3.08 h and 1.88 h
  T1/2: 0.619 h and 2.15 h and 1.18 h
[2]
  body weight change versus control group: no difference of the body weight
MERS-CoV pseudovirus
  inhibition at 0.1 µM: ~90%
HCoV-229E pseudovirus
  inhibition at 0.1 µM: ~90%
In vitro
  CC50: > 100 µM
VSV-G pseudovirus
  inhibitory effect on VSV-G-mediated pseudovirus infection: did not show an effective inhibitory effect
